Data on 15 molecules can be found in patent publication US9000153B2, “Imidazo[4,5-c]quinolines as DNA-PK inhibitors” (Merck Patent GmbH, priority 2010, dated 2015).

The structures appear in SMILES notation. Read-outs that look alike come from different tables or passages of the source.

For test [1], the target named is T1, DNA-PK (Homo sapiens (Human), UniProt P78527). Description: DNA-PK/biochemical assay (FlashPlate kinase assay). As to conditions: 5 μM ATP, 90 min, room temperature. Here is the method: The kinase assay was carried out in streptavidin-coated […] microtitre FlashPlates®. To this end, 1.5 μg of the DNA-PK/protein complex and 100 ng of biotinylated substrate, such as, for example, PESQEAFADLWKK biotin-NH2 (“biotin-DNA-PK peptide”), in a total volume of 36.5 μl (34.25 mM HEPES/KOH, 7.85 mM Tris-HCl, 68.5 mM KCl, 5 μM ATP, 6.85 mM MgCl2, 0.5 mM EDTA, 0.14 mM EGTA, 0.69 mM DTT, pH 7.4), were incubated at room temperature for 90 min with 500 ng of DNA from calf thymus, 0.1 μCi of 33P-ATP and 1.8% of DMSO per well with or without the test compound. The reaction was stopped using 50 μl/well of 200 mM EDTA. After incubation for a further 30 min at room temperature, the liquid was removed. Each well was washed three times with 100 μl of 0.9% sodium chloride solution. A non-specific reaction (blank value) was determined using 10 μM of a proprietary kinase inhibitor. The radioactivity measurement was carried out by means of a TopCount. IC50 values were calculated in RS1 (Kashishian et al. (2003) Molecular Cancer Therapeutics 1257).

Test [2] concerns kinases of the PI3K isoenzyme family. As to conditions: cited from earlier work.
The subject of a further test is mammal cells. As to conditions: in cellular terms; cited from earlier work.
For test [3], the target named is T1, DNA-PK. To be noted: cited from earlier work.

Molecule `COc1cc2ncc3c(c2cc1OC(CN)c1ccc(F)cc1)n(-c1ccc(C#N)cc1F)c(=O)n3C` (stereo not drawn) [Compound 32, 4-{8-[2-Amino-1-(4-fluorophenyl)ethoxy]-7-methoxy-3-methyl-2-oxo-2,3-dihydro-imidazo[4,5-c]quinolin-1-yl}-3-fluorobenzonitrile] registered a concentration for half-maximal inhibition (IC50) on DNA-PK [1] of 500 to 1000 nM.
On to `COc1cc2ncc3c(c2cc1-c1cccnc1)n(-c1ccc(C#N)cc1F)c(=O)n3C` [Compound 33, 3-Fluoro-4-(7-methoxy-3-methyl-2-oxo-8-pyridin-3-yl-2,3-dihydro-imidazo[4,5-c]quinolin-1-yl)-benzonitrile], for which the half-maximal inhibitory concentration (IC50) against DNA-PK [1] is below 100 nM.
For the molecule `COc1ccc(-c2cc3c(cc2OC)ncc2c3n(-c3ccc(C#N)cc3F)c(=O)n2C)cn1` [Compound 34, 3-Fluoro-4-[7-methoxy-8-(6-methoxypyridin-3-yl)-3-methyl-2-oxo-2,3-dihydroimidazo[4,5-c]-quinolin-1-yl)benzonitrile], the IC50 on DNA-PK [1] is below 100 nM.
At DNA-PK [1], `COc1cc2ncc3c(c2cc1-c1cnc2ccccc2c1)n(-c1ccc(C#N)cc1F)c(=O)n3C` [Compound 35, 3-Fluoro-4-(7-methoxy-3-methyl-2-oxo-8-quinolin-3-yl-2,3-dihydroimidazo[4,5-c]quinolin-1-yl)benzonitrile] showed an IC50 below 100 nM.
The same measure, in the same setting: with `COc1cc2ncc3c(c2cc1-c1cnn(C)c1)n(-c1ccc(C#N)cc1F)c(=O)n3C` [Compound 36, 3-Fluoro-4-[7-methoxy-3-methyl-8-(1-methyl-1H-pyrazol-4-yl)-2-oxo-2,3-dihydroimidazo[4,5-c]-quinolin-1-yl]benzonitrile] the figure was below 100 nM; with `COc1cc2ncc3c(c2cc1-c1cn[nH]c1)n(-c1ccc(C#N)cc1F)c(=O)n3C` [Compound 37, 3-Fluoro-4-[7-methoxy-3-methyl-2-oxo-8-(1H-pyrazol-4-yl)-2,3-dihydroimidazo[4,5-c]quinolin-1-yl)benzonitrile], below 100 nM.
The same measure, in the same setting: as for `COc1cc2ncc3c(c2cc1-c1ccnn1C)n(-c1ccc(C#N)cc1F)c(=O)n3C` [Compound 38, 3-Fluoro-4-[7-methoxy-3-methyl-8-(2-methyl-2H-pyrazol-3-yl)-2-oxo-2,3-dihydroimidazo[4,5-c]-quinolin-1-yl)benzonitrile], the figure is 100 to 500 nM; as for `COc1cc2ncc3c(c2cc1-c1ccn[nH]1)n(-c1ccc(C#N)cc1F)c(=O)n3C` [Compound 39, 3-Fluoro-4-[7-methoxy-3-methyl-2-oxo-8-(2H-pyrazol-3-yl)-2,3-dihydroimidazo[4,5-c]quinolin-1-yl]benzonitrile], below 100 nM; as for `COc1cc2ncc3c(c2cc1-c1cc(C(F)(F)F)nn1C)n(-c1ccc(C#N)cc1F)c(=O)n3C` [Compound 40, 3-Fluoro-4-[7-methoxy-3-methyl-8-(2-methyl-5-trifluoromethyl-2H-pyrazol-3-yl)-2-oxo-2,3-dihydro-imidazo[4,5-c]quinolin-1-yl]-benzonitrile], 100 to 500 nM.
Consider `COc1cc2ncc3c(c2cc1/C=C/c1ccsc1)n(-c1ccc(C#N)cc1F)c(=O)n3C` [Compound 41, 3-Fluoro-4-[7-methoxy-3-methyl-2-oxo-8-((E)-2-thiophen-3-yl-viniyl)-2,3-dihydroimidazo-[4,5-c]quinolin-1-yl]benzonitrile], for which, at DNA-PK [1], the IC50 was below 100 nM.
For `COc1cc2ncc3c(c2cc1CCc1ccsc1)n(-c1ccc(C#N)cc1F)c(=O)n3C` [Compound 42, 3-Fluoro-4-[7-methoxy-3-methyl-2-oxo-8-(2-thiophen-3-ylethyl)-2,3-dihydroimidazo[4,5-c]-quinolin-1-yl]benzonitrile], the IC50 at DNA-PK [1] fell in the range of 100 to 500 nM.
Regarding `COc1cc2ncc3c(c2cc1/C=C/c1ccccc1)n(-c1ccc(C#N)cc1F)c(=O)n3C` [Compound 43, 3-Fluoro-4-[7-methoxy-3-methyl-2-oxo-8-((E)-styryl)-2,3-dihydroimidazo[4,5-c]quinolin-1-yl]benzonitrile], the half-maximal inhibitory concentration (IC50) against DNA-PK [1] was 100 to 500 nM.
Take `CCN1CCN(CC(=O)Nc2ccc(-c3cccc4c(=O)cc(N5CCOCC5)oc34)c3sc4ccccc4c23)CC1` [KU-0060648]: in test [2], the “inhibition of PI3K isoenzyme family kinases” value was “potently inhibited”.
Take `O=c1cc(N2CCOCC2)oc2c(-c3ccccc3)cccc12` [LY294002]: the “increase in sensitivity to ionising irradiation” value with mammal cells is on record as “only a weak increase”.
`O=c1cc(N2CCOCC2)oc2c(-c3cccc4c3sc3ccccc34)cccc12` [NU-7441]: the IC50 on DNA-PK [3] was 20 nM.

One may read the IC50 as the concentration at which inhibition is half-maximal.
